The values below come from US11352341B2, “2H-indazole derivatives as CDK4 and CDK6 inhibitors and therapeutic uses thereof” (Beta Pharma, Inc., priority 2018, dated 2022).

In general, IC50 refers to the point on the concentration scale where inhibition reaches its midpoint.

Molecules are shown by their SMILES. Counter-ions that a name gives are not always drawn.

What all share (assay type): biochemical
Holding throughout (conditions): RB Protein 3 μM substrate, 33P-ATP 1 μM, 10-dose IC50 mode, 3-fold dilution starting at 0.1 μM

Experiment [1] has as its target CDK4/cyclin D1 (Homo sapiens, UniProt P11802). Description: Radiometric 33P-ATP filter-binding kinase assay, CDK4/cyclin D1. Here is the method: (§1) CDK4/cyclin D1, CDK4/cyclin D3, CDK6/cyclin D1, and CDK6/cyclin D3 were added to freshly prepared substrate solution (RB Protein, 3 μM) which was in freshly made reaction buffer (20 mM Hepes (pH 7.5), 10 mM MgCl2, 1 mM EGTA, 0.02% Brij35, 0.02 mg/mL BSA, 0.1 mM Na3VO4, 2 mM DTT, 1% DMSO) and gently mixed, respectively. Compound 1.HCl was tested in a 10-dose IC50 mode with 3-fold dilution starting at 0.1 μM. Compound 1.HCl was prepared and diluted in DMSO and was delivered into the kinases/substrate reaction mixture by Acoustic technology (Echo550; nanoliter range), then incubated for 20 min at room temperature. Then 33P-ATP (1 μM) was added into the reaction mixture to initiate the reaction. The kinase reaction was incubated at room temperature for 2 hours. The reactions were spotted onto P81 ion-exchange paper and radioactivity was detected by filter-binding method. The kinase activity data were expressed as the percent remaining kinase activity in test samples compared to vehicle (Dimethyl Sulfoxide) reactions. […] HCl were determined for all 4 kinases: CDK4/cyclin D1, CDK4/cyclin D3, CDK6/cyclin D1, and CDK6/cyclin D3 and are shown in Table 2, as compared with those of ethylated counterpart, namely N-(5-((4-ethylpiperazin-1-yl)methyl)pyridin-2-yl)-5-fluoro-4-(3-isopropyl-2-methyl-2H-indazol-5-yl)pyrimidin-2-amine, or compound 37. […]

The target of experiment [2] is CDK4/cyclin D3 (Homo sapiens, UniProt P11802). Description: Radiometric 33P-ATP filter-binding kinase assay, CDK4/cyclin D3. Here is the method: as §1
Experiment [3] has as its target CDK6/cyclin D1 (Homo sapiens, UniProt Q00534). Description: Radiometric 33P-ATP filter-binding kinase assay, CDK6/cyclin D1. Here is the method:
as §1

Experiment [4] addresses CDK6/cyclin D3 (Homo sapiens, UniProt Q00534). Briefly: Radiometric 33P-ATP filter-binding kinase assay, CDK6/cyclin D3. Here is the method:
as §1

Sequence of CDK6/cyclin D1 (Q00534 whole entry, species assumed): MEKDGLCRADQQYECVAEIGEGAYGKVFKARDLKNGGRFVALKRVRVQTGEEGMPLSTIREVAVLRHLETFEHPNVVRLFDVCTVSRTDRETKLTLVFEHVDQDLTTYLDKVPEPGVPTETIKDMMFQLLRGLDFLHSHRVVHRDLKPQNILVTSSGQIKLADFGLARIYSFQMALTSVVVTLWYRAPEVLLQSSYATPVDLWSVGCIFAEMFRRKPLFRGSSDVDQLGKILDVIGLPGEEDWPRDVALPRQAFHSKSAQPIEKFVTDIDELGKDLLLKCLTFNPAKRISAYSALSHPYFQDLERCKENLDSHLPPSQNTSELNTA
Sequence of CDK6/cyclin D1 (P24385 whole entry partner, species assumed): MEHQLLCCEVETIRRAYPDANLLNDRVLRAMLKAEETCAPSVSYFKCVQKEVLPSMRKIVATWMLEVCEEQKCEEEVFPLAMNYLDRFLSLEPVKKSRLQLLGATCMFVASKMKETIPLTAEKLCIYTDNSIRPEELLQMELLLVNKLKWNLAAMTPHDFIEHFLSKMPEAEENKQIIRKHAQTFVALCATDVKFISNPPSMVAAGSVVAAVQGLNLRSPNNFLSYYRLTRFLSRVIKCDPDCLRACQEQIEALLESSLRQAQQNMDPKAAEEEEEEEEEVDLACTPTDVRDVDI
Sequence of CDK6/cyclin D3 (Q00534 whole entry, species assumed): as the sequence (Q00534 whole entry, species assumed) above
Sequence of CDK6/cyclin D3 (P30281 whole entry partner, species assumed): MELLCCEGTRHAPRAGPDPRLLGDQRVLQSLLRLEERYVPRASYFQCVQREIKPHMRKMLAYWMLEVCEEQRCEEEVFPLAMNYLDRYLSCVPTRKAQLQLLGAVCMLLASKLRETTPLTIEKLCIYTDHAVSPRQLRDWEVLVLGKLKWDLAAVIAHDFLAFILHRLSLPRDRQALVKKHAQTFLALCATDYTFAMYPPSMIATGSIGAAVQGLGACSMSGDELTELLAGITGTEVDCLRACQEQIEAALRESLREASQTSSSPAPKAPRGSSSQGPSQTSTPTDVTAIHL
Sequence of CDK4/cyclin D3 (P11802 whole entry, species assumed): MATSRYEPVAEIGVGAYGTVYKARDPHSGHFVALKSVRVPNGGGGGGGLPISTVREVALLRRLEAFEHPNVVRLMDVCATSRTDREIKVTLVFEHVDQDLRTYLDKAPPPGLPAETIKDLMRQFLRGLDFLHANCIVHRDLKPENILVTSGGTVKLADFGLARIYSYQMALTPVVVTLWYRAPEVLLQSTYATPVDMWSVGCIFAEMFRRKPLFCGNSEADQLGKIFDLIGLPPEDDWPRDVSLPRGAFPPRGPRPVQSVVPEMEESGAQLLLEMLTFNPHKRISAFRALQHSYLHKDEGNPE
Sequence of CDK4/cyclin D3 (P30281 whole entry partner, species assumed): as the sequence (P30281 whole entry partner, species assumed) above
Sequence of CDK4/cyclin D1 (P11802 whole entry, species assumed): as the sequence (P11802 whole entry, species assumed) above
Sequence of CDK4/cyclin D1 (P24385 whole entry partner, species assumed): as the sequence (P24385 whole entry partner, species assumed) above

`CCN1CCN(Cc2ccc(Nc3ncc(F)c(-c4ccc5nn(C)c(C(C)C)c5c4)n3)nc2)CC1` [Compound 37, N-(5-((4-ethylpiperazin-1-yl)methyl)pyridin-2-yl)-5-fluoro-4-(3-isopropyl-2-methyl-2H-indazol-5-yl)pyrimidin-2-amine]: the concentration for half-maximal inhibition (IC50) was 1.47 nM in experiment [1], 1.98 nM in experiment [2], 23.8 nM in experiment [3] and 5.66 nM in experiment [4].

For `CC(C)c1c2cc(-c3nc(Nc4ccc(CN5CCNCC5)cn4)ncc3F)ccc2nn1C` [1•HCl, 5-Fluoro-4-(3-isopropyl-2-methyl-2H-indazol-5-yl)-N-(5-(piperazin-1-ylmethyl)pyridin-2-yl)pyrimidin-2-amine hydrochloride], the IC50 in experiment [1] was 0.705 nM; in experiment [2], 3.99 nM; in experiment [3] it was 1.11 nM; in experiment [4], 25.6 nM.
